According to patent publication US20250179057A1, “MEK IMMUNE ONCOLOGY INHIBITORS AND THERAPEUTIC USES THEREOF” (Immuneering Corporation, priority 2022, published 2025):
Like-named read-outs stand apart in the source and are kept apart here.

What was measured:
[1] = tested on: phospho-ERK in Hs852.T cells; experiment: pERK/tERK ratio in Hs852.T melanoma model; assay type: cell-based; details: Hs852.T (NRAS p.G12V); 100 nM
Procedure: (§1) Compound (drug) treatment: Cells were plated in a 6-well plate at a density of 250,000-300,000 cells/well in 3 mL media and incubated 37° C. in a humidified, 5% CO2 incubator. […] These solutions were added to the cells (3 uL/well), mixed by swirling the plate, and incubated at 37° C. in a humidified, 5% CO2 incubator for 2 hours.
(§2) Cell lysis and protein estimation: Cells were washed with PBS, and scraped in 50 μL of lysis buffer containing protease and phosphatase inhibitors. Cell lysates were stored at −20° C. Cell lysates were thawed and spun at 12,000 rpm for one minute, 3 ul of the supernatant was added to 500 μL of Coomassie blue reagent following by 500 μL of water. […] Protein standards were used (0-20 mg/mL) to calculate protein concentrations of test samples.
(§3) All samples were heated at 95° C. for 5 minutes, cooled to room temperature and spun down. […] After the run, gel was removed and protein transfer was done using iBlot for 7 minutes, as per manufacturer's recommendations. After the transfer, nitrocellulose membrane was incubated on a shaker in 5 mL of blocking buffer at room temperature for 1 hr. The blot was then incubated overnight on a shaker in 5 ml of blocking buffer containing 0.2% Tween-20 and primary antibody, at room temperature. Anti-phospho-STAT3 antibody was used at a dilution of 1:500, the other 3 primary antibodies were used at a dilution of 1:1000.
(§4) Next day, the blot was washed 3 times for 10 min each with 10 mL of TBST followed by incubation on a shaker in 5 ml of blocking buffer containing 0.2% Tween-20 and 0.5 ul of the IRDye labeled secondary antibodies, diluted 1:10000, at room temperature for 1 hr. The blot was then washed 3 times for 10 min each with 10 mL of TBST and dried between sheets of paper towels. Imaging was done using LICOR's Odyssey imaging system, quantitation was done using their software, Image Studio version 3.1.
(§5) The nine models are described in Table 16.

[2] = tested on: phospho-MEK in MeWo cells; experiment: pMEK/tMEK ratio in MeWo melanoma model; assay type: cell-based; details: MeWo (NF1 LoF); 100 nM
Procedure: as §1, §2, §3, §4, §5

[3] = tested on: phospho-ERK in MM415 cells; experiment: pERK/tERK ratio in MM415 melanoma model; assay type: cell-based; details: MM415 (NRAS p.Q61L); 100 nM
Procedure: as §1, §2, §3, §4, §5

[4] = tested on: phospho-ERK in SK-MEL-28 cells; experiment: pERK/tERK ratio in SK-MEL-28 melanoma model; assay type: cell-based; details: SK-MEL-28 (BRAF p.V600E); 100 nM
Procedure: as §1, §2, §3, §4, §5

[5] = tested on: phospho-ERK in MeWo cells; experiment: pERK/tERK ratio in MeWo melanoma model; assay type: cell-based; details: MeWo (NF1 LoF); 100 nM
Procedure: as §1, §2, §3, §4, §5

[6] = tested on: phospho-MEK in MM127 cells; experiment: pMEK/tMEK ratio in MM127 melanoma model; assay type: cell-based; details: MM127 (NRAS p.G13R, BRAF p.G464E); 100 nM
Procedure: as §1, §2, §3, §4, §5

[7] = tested on: phospho-MEK in SK-MEL-2 cells; experiment: pMEK/tMEK ratio in SK-MEL-2 melanoma model; assay type: cell-based; details: SK-MEL-2 (NRAS p.Q61R); 100 nM
Procedure: as §1, §2, §3, §4, §5

[8] = tested on: phospho-MEK in SK-MEL-30 cells; experiment: pMEK/tMEK ratio in SK-MEL-30 melanoma model; assay type: cell-based
Procedure: as §1, §2, §3, §4, §5

[9] = tested on: phospho-MEK in Hs852.T cells; experiment: pMEK/tMEK ratio in Hs852.T melanoma model; assay type: cell-based; details: Hs852.T (NRAS p.G12V); 100 nM
Procedure: as §1, §2, §3, §4, §5

[10] = tested on: phospho-ERK in SK-MEL-30 cells; experiment: pERK/tERK ratio in SK-MEL-30 melanoma model; assay type: cell-based; details: SK-MEL-30 (NRAS p.Q61K); 100 nM
Procedure: as §1, §2, §3, §4, §5

[11] = tested on: phospho-ERK in MEL-JUSO cells; experiment: pERK/tERK ratio in MEL-JUSO melanoma model; assay type: cell-based; details: MEL-JUSO (HRAS p.G13D, NRAS p.Q61L); 100 nM
Procedure: as §1, §2, §3, §4, §5

[12] = tested on: phospho-MEK in MEL-JUSO cells; experiment: pMEK/tMEK ratio in MEL-JUSO melanoma model; assay type: cell-based; details: MEL-JUSO (HRAS p.G13D, NRAS p.Q61L); 100 nM
Procedure: as §1, §2, §3, §4, §5

[13] = Liver microsome stability (% remaining at 1 hour), beagle dog; assay type: in vitro ADME; details: 2 μM
Procedure: (§6) Materials and Methods: Individual stock solutions of Test Articles (TA) were prepared at 30 mM in DMSO and were further diluted to 2 mM in DMSO. […] Prior to use in the assay, the 2 mM stock solutions were diluted 10-fold with acetonitrile. The acetonitrile diluted stocks were diluted 1:50 into warm (37° C.) 0.1 M potassium phosphate, pH 7.4, containing 2.0 mM NADPH (2× final assay concentration). Frozen liver microsomes were quick thawed in a 37° C. water bath and then placed on ice. […] The plate was incubated with gentle shaking at 37° C. Duplicate 30 μL aliquots were removed immediately after compound addition (To: time zero) and at 60 minutes. […] The quenched samples were gently mixed and were stored in a −20° C. freezer for at least 30 minutes. […]
(§7) Data Collection and Calculations: Analyst (AB Sciex) and Acquity (Waters) were used for data acquisition. Results were calculated using Microsoft Excel.
(§8) Peak area ratios for IS-normalized test article counts were used to calculate the percent remaining relative to the time zero (T0) value. As appropriate, results were plotted and further analyzed to calculate half-life (T1/2) and CLint values. […]
(§9) Results were plotted [ln (% remaining) vs. incubation time] and further analyzed to calculate half-life (T1/2) values: […]

in vitro = details: human; for Papp A→B at 2 h, 10 μM: Caco-2, Mean Papp A-B (10^-6 cm/s); for Papp B→A at 2 h, 10 μM: Caco-2, Mean Papp B-A (10^-6 cm/s)
[14] = Liver microsome stability (% remaining at 1 hour), human; assay type: in vitro ADME; details: 2 μM
Procedure: as §6, §7, §8, §9

[15] = Liver microsome stability (% remaining at 1 hour), CD-1 mouse; assay type: in vitro ADME; details: 2 μM
Procedure: as §6, §7, §8, §9

[16] = Plasma stability, mouse plasma (Balb/c; Table 5 head CD-1 Mouse); assay type: in vitro ADME; details: 2 μM

SMILES | pERK/tERK ratio normalized to DMSO [1] | pMEK/tMEK ratio normalized to DMSO [2] | pERK/tERK ratio normalized to DMSO [3] | pERK/tERK ratio normalized to DMSO [4] | pERK/tERK ratio normalized to DMSO [5] | pMEK/tMEK ratio normalized to DMSO [6] | pMEK/tMEK ratio normalized to DMSO [7] | pMEK/tMEK ratio normalized to DMSO [9] | pERK/tERK ratio normalized to DMSO [10] | pERK/tERK ratio normalized to DMSO [11] | pMEK/tMEK ratio normalized to DMSO [12] | Papp A→B at 2 h, 10 μM (in vitro) [×10⁻⁶ cm/s] | Papp B→A at 2 h, 10 μM (in vitro) [×10⁻⁶ cm/s] | also measured
CNS(=O)(=O)Nc1cccc(Cc2c(CN(C)C)c3ccc(OC(=O)N(C)C)cc3oc2=O)c1Cl [Compound 274, 3-(2-chloro-3-((N-methylsulfamoyl)amino)benzyl)-4-((dimethylamino)methyl)-2-oxo-2H-chromen-7-yl dimethylcarbamate] | 0.731 | 0.904 | 0.423 | 0.745 | 0.519 | 0.773 | 0.518 | 0.672 | 0.521 | 0.631 | 0.548 | – | – | pMEK/tMEK ratio normalized to DMSO ([8]; SK-MEL-30 (NRAS p.Q61K), 100 nM): 0.609
Cn1cnc2c(F)c(Nc3ccc(Br)cc3Cl)c(C(=O)NOCCO)cc21 [Reference-1, Selumetinib] | 0.293 | 5.483 | 0.114 | 0.152 | 0.196 | 2.341 | 2.055 | 4.945 | 0.163 | 0.179 | 2.988 | 8.83 | 28.2 | Beagle Dog (% Reamining @1 hour) ([13]; liver microsomes, 1 hour): 97.5%; efflux ratio at 2 h, 10 μM (in vitro; Caco-2, Mean (B-A/A-B) (Efflux Ratio)): 3.19; Human (% Reamining @1 hour) ([14]; liver microsomes, 1 hour): 75.8%; CD-1 Mouse (% Reamining @1 hour) ([15]; liver microsomes, 1 hour): 13.9%; pMEK/tMEK ratio normalized to DMSO [8]: 2.177; CD-1 Mouse (% Reamining @2 hour) ([16]; CD-1, mouse, 2 h, pH 7.4): 104.8%
CNS(=O)(=O)Nc1nccc(Cc2c(C)c3ccc(Oc4ncccn4)cc3oc2=O)c1F [Reference-2, reference compound] | – | – | – | – | – | – | – | – | – | – | – | 18.1 | 20.9 | Beagle Dog (% Reamining @1 hour) ([13]; beagle, dog, 1 h, pH 7.4): 111.6%; Human (% Reamining @1 hour) ([14]; human, 1 h, pH 7.4): 107.1%; CD-1 Mouse (% Reamining @1 hour) ([15]; CD-1, mouse, 1 h, pH 7.4): 96.0%; CD-1 Mouse (% Reamining @2 hour) ([16]; plasma, 2 hour): 92.9%
